{"source": "patent US4587342A", "about": "“2,4-diamino-(substituted-benzopyran(quinolyl,isoquinoly)methyl)pyrimidine s useful as antibacterials” (priority 1980, dated 1986)", "data": [{"system": "Pr. mirabilis S2409", "experiment": "MIC against Pr. mirabilis S2409 in vitro", "assay_type": "cell-based", "details": "Proteus mirabilis, read-out: Minimum Inhibitory Concentration (MIC)", "text": "(§1) The compounds of the present invention were subjected to standard tests in order to determine the minimum inhibitory concentration in μg/ml needed to inhibit a range of bacterial microorganisms in-vitro.", "units": {"MIC": "µg/mL"}, "values": [{"smiles": "COc1cc(Cc2cnc(N)nc2N)cc(OC)c1OC", "note": "[TMP, 2,4-diamino-5-(3,4,5-trimethoxybenzyl)pyrimidine, reference compound]", "MIC": 5}, {"smiles": "COc1cc(Cc2cnc(N)nc2N)c2cccnc2c1SC", "note": "[Compound 31, 2,4-Diamino-5-(7-methoxy-8-methylthio-5-quinolylmethyl)pyrimidine]", "MIC": 5}, {"smiles": "COc1cc(Cc2cnc(N)nc2N)c2cccnc2c1N.Cl.Cl", "note": "[Compound 8, 2,4-Diamino-5-(8-amino-7-methoxy-5-quinolylmethyl)-pyrimidine dihydrochloride]", "MIC": 1}, {"smiles": "Cc1cc(Cc2cnc(N)nc2N)c2cccnc2c1N(C)C.Cl.Cl", "note": "[Compound 9, 2,4-Diamino-5-(8-dimethylamino-7-methyl-5-quinolylmethyl)pyrimidine dihydrochloride]", "MIC": 5}]}, {"system": "aerobic bacteria", "experiment": "not given", "details": "general statement on trimethoprim; cited from earlier work", "values": [{"smiles": "COc1cc(Cc2cnc(N)nc2N)cc(OC)c1OC", "note": "[TMP, 2,4-diamino-5-(3,4,5-trimethoxybenzyl)pyrimidine, reference compound]", "level of activity against aerobic bacteria": "excellent level of activity against most aerobic bacteria"}]}, {"system": "Staph. aureus", "experiment": "MIC vs Staph. aureus (Table 2)", "assay_type": "cell-based", "details": "Staphylococcus aureus, strain not given", "text": "as §1", "units": {"MIC": "µg/mL"}, "values": [{"smiles": "COc1cc(Cc2cnc(N)nc2N)cc(OC)c1OC", "note": "[TMP, 2,4-diamino-5-(3,4,5-trimethoxybenzyl)pyrimidine, reference compound]", "MIC": 0.5}]}, {"system": "Gonococci", "experiment": "MIC against Gonococci in vitro", "assay_type": "cell-based", "details": "Gonococci (average 17 strains); read-out: Minimum Inhibitory Concentration (MIC)", "text": "as §1", "units": {"MIC": "µg/mL"}, "values": [{"smiles": "COc1cc(Cc2cnc(N)nc2N)cc(OC)c1OC", "note": "[TMP, 2,4-diamino-5-(3,4,5-trimethoxybenzyl)pyrimidine, reference compound]", "MIC": 37.1}, {"smiles": "COc1cc(Cc2cnc(N)nc2N)c2cccnc2c1SC", "note": "[Compound 31, 2,4-Diamino-5-(7-methoxy-8-methylthio-5-quinolylmethyl)pyrimidine]", "MIC": 34.4}, {"smiles": "COc1cc(Cc2cnc(N)nc2N)c2cccnc2c1N.Cl.Cl", "note": "[Compound 8, 2,4-Diamino-5-(8-amino-7-methoxy-5-quinolylmethyl)-pyrimidine dihydrochloride]", "MIC": 11.1}, {"smiles": "Cc1cc(Cc2cnc(N)nc2N)c2cccnc2c1N(C)C.Cl.Cl", "note": "[Compound 9, 2,4-Diamino-5-(8-dimethylamino-7-methyl-5-quinolylmethyl)pyrimidine dihydrochloride]", "MIC": "> 25"}]}, {"system": "not listed separately", "experiment": "Acute toxicity in mouse", "details": "in vivo, ip; i.p. mouse", "units": {"LD50": "mg/kg"}, "values": [{"smiles": "COc1cc(Cc2cnc(N)nc2N)c2cccnc2c1N.Cl.Cl", "note": "[Compound 8, 2,4-Diamino-5-(8-amino-7-methoxy-5-quinolylmethyl)-pyrimidine dihydrochloride]", "LD50": 500}]}, {"system": "anaerobic bacteria", "experiment": "not given", "details": "general statement on trimethoprim; cited from earlier work", "values": [{"smiles": "COc1cc(Cc2cnc(N)nc2N)cc(OC)c1OC", "note": "[TMP, 2,4-diamino-5-(3,4,5-trimethoxybenzyl)pyrimidine, reference compound]", "level of activity against anaerobic bacteria": "activity against anaerobic bacteria is less impressive"}]}, {"system": "Meningococci", "experiment": "MIC against Meningococci in vitro", "assay_type": "cell-based", "details": "Meningococci (average 5 strains); read-out: Minimum Inhibitory Concentration (MIC)", "text": "as §1", "units": {"MIC": "µg/mL"}, "values": [{"smiles": "COc1cc(Cc2cnc(N)nc2N)cc(OC)c1OC", "note": "[TMP, 2,4-diamino-5-(3,4,5-trimethoxybenzyl)pyrimidine, reference compound]", "MIC": 18}, {"smiles": "COc1cc(Cc2cnc(N)nc2N)c2cccnc2c1SC", "note": "[Compound 31, 2,4-Diamino-5-(7-methoxy-8-methylthio-5-quinolylmethyl)pyrimidine]", "MIC": 14.4}, {"smiles": "COc1cc(Cc2cnc(N)nc2N)c2cccnc2c1N.Cl.Cl", "note": "[Compound 8, 2,4-Diamino-5-(8-amino-7-methoxy-5-quinolylmethyl)-pyrimidine dihydrochloride]", "MIC": 3.7}, {"smiles": "Cc1cc(Cc2cnc(N)nc2N)c2cccnc2c1N(C)C.Cl.Cl", "note": "[Compound 9, 2,4-Diamino-5-(8-dimethylamino-7-methyl-5-quinolylmethyl)pyrimidine dihydrochloride]", "MIC": "> 25"}]}, {"system": "Vibrio cholerae ATCC14035", "experiment": "MIC against Vibrio cholerae ATCC14035 in vitro", "assay_type": "cell-based", "details": "ATCC14035, read-out: Minimum Inhibitory Concentration (MIC)", "text": "as §1", "units": {"MIC": "µg/mL"}, "values": [{"smiles": "COc1cc(Cc2cnc(N)nc2N)cc(OC)c1OC", "note": "[TMP, 2,4-diamino-5-(3,4,5-trimethoxybenzyl)pyrimidine, reference compound]", "MIC": 0.5}, {"smiles": "COc1cc(Cc2cnc(N)nc2N)c2cccnc2c1SC", "note": "[Compound 31, 2,4-Diamino-5-(7-methoxy-8-methylthio-5-quinolylmethyl)pyrimidine]", "MIC": 0.05}, {"smiles": "COc1cc(Cc2cnc(N)nc2N)c2cccnc2c1N.Cl.Cl", "note": "[Compound 8, 2,4-Diamino-5-(8-amino-7-methoxy-5-quinolylmethyl)-pyrimidine dihydrochloride]", "MIC": 0.05}, {"smiles": "Cc1cc(Cc2cnc(N)nc2N)c2cccnc2c1N(C)C.Cl.Cl", "note": "[Compound 9, 2,4-Diamino-5-(8-dimethylamino-7-methyl-5-quinolylmethyl)pyrimidine dihydrochloride]", "MIC": 0.5}]}, {"system": "Salmonella dublin", "experiment": "Experimental salmonellosis in calves", "assay_type": "in vivo", "details": "1 mg/kg daily plus SDZ 20 mg/kg, 5 days from two days after infection; deaths/calves", "values": [{"smiles": "COc1cc(Cc2cnc(N)nc2N)cc(OC)c1OC", "note": "[TMP, 2,4-diamino-5-(3,4,5-trimethoxybenzyl)pyrimidine, reference compound]", "Mortality": "2/7"}]}, {"system": "St. agalactiae CN1143", "experiment": "MIC against St. agalactiae CN1143 in vitro", "assay_type": "cell-based", "details": "Streptococcus agalactiae, read-out: Minimum Inhibitory Concentration (MIC)", "text": "as §1", "units": {"MIC": "µg/mL"}, "values": [{"smiles": "COc1cc(Cc2cnc(N)nc2N)cc(OC)c1OC", "note": "[TMP, 2,4-diamino-5-(3,4,5-trimethoxybenzyl)pyrimidine, reference compound]", "MIC": 0.5}, {"smiles": "COc1cc(Cc2cnc(N)nc2N)c2cccnc2c1SC", "note": "[Compound 31, 2,4-Diamino-5-(7-methoxy-8-methylthio-5-quinolylmethyl)pyrimidine]", "MIC": 0.5}, {"smiles": "COc1cc(Cc2cnc(N)nc2N)c2cccnc2c1N.Cl.Cl", "note": "[Compound 8, 2,4-Diamino-5-(8-amino-7-methoxy-5-quinolylmethyl)-pyrimidine dihydrochloride]", "MIC": 0.1}, {"smiles": "Cc1cc(Cc2cnc(N)nc2N)c2cccnc2c1N(C)C.Cl.Cl", "note": "[Compound 9, 2,4-Diamino-5-(8-dimethylamino-7-methyl-5-quinolylmethyl)pyrimidine dihydrochloride]", "MIC": 0.5}]}, {"system": "Staph. aureus CN491", "experiment": "MIC against Staph. aureus CN491 in vitro", "assay_type": "cell-based", "details": "Staphylococcus aureus, read-out: Minimum Inhibitory Concentration (MIC)", "text": "as §1", "units": {"MIC": "µg/mL"}, "values": [{"smiles": "COc1cc(Cc2cnc(N)nc2N)cc(OC)c1OC", "note": "[TMP, 2,4-diamino-5-(3,4,5-trimethoxybenzyl)pyrimidine, reference compound]", "MIC": 0.5}, {"smiles": "COc1cc(Cc2cnc(N)nc2N)c2cccnc2c1SC", "note": "[Compound 31, 2,4-Diamino-5-(7-methoxy-8-methylthio-5-quinolylmethyl)pyrimidine]", "MIC": 0.05}, {"smiles": "COc1cc(Cc2cnc(N)nc2N)c2cccnc2c1N.Cl.Cl", "note": "[Compound 8, 2,4-Diamino-5-(8-amino-7-methoxy-5-quinolylmethyl)-pyrimidine dihydrochloride]", "MIC": 0.1}, {"smiles": "Cc1cc(Cc2cnc(N)nc2N)c2cccnc2c1N(C)C.Cl.Cl", "note": "[Compound 9, 2,4-Diamino-5-(8-dimethylamino-7-methyl-5-quinolylmethyl)pyrimidine dihydrochloride]", "MIC": 0.5}]}, {"system": "Esch. coli CN314", "experiment": "MIC against Esch. coli CN314 in vitro", "assay_type": "cell-based", "details": "Escherichia coli, read-out: Minimum Inhibitory Concentration (MIC)", "text": "as §1", "units": {"MIC": "µg/mL"}, "values": [{"smiles": "COc1cc(Cc2cnc(N)nc2N)cc(OC)c1OC", "note": "[TMP, 2,4-diamino-5-(3,4,5-trimethoxybenzyl)pyrimidine, reference compound]", "MIC": 0.05}, {"smiles": "COc1cc(Cc2cnc(N)nc2N)c2cccnc2c1SC", "note": "[Compound 31, 2,4-Diamino-5-(7-methoxy-8-methylthio-5-quinolylmethyl)pyrimidine]", "MIC": 0.1}, {"smiles": "COc1cc(Cc2cnc(N)nc2N)c2cccnc2c1N.Cl.Cl", "note": "[Compound 8, 2,4-Diamino-5-(8-amino-7-methoxy-5-quinolylmethyl)-pyrimidine dihydrochloride]", "MIC": 0.1}, {"smiles": "Cc1cc(Cc2cnc(N)nc2N)c2cccnc2c1N(C)C.Cl.Cl", "note": "[Compound 9, 2,4-Diamino-5-(8-dimethylamino-7-methyl-5-quinolylmethyl)pyrimidine dihydrochloride]", "MIC": 0.1}]}, {"system": "B. fragilis", "experiment": "MIC against B. fragilis in vitro", "assay_type": "cell-based", "details": "Bacteroides fragilis; B. fragilis (average 3-10 strains); read-out: Minimum Inhibitory Concentration (MIC)", "text": "as §1", "units": {"MIC": "µg/mL"}, "values": [{"smiles": "COc1cc(Cc2cnc(N)nc2N)cc(OC)c1OC", "note": "[TMP, 2,4-diamino-5-(3,4,5-trimethoxybenzyl)pyrimidine, reference compound]", "MIC": 4}, {"smiles": "COc1cc(Cc2cnc(N)nc2N)c2cccnc2c1SC", "note": "[Compound 31, 2,4-Diamino-5-(7-methoxy-8-methylthio-5-quinolylmethyl)pyrimidine]", "MIC": 3.1}, {"smiles": "COc1cc(Cc2cnc(N)nc2N)c2cccnc2c1N.Cl.Cl", "note": "[Compound 8, 2,4-Diamino-5-(8-amino-7-methoxy-5-quinolylmethyl)-pyrimidine dihydrochloride]", "MIC": 5.2}, {"smiles": "Cc1cc(Cc2cnc(N)nc2N)c2cccnc2c1N(C)C.Cl.Cl", "note": "[Compound 9, 2,4-Diamino-5-(8-dimethylamino-7-methyl-5-quinolylmethyl)pyrimidine dihydrochloride]", "MIC": 7.8}]}, {"system": "St. faecalis CN478", "experiment": "MIC against St. faecalis CN478 in vitro", "assay_type": "cell-based", "details": "Enterococcus faecalis, read-out: Minimum Inhibitory Concentration (MIC)", "text": "as §1", "units": {"MIC": "µg/mL"}, "values": [{"smiles": "COc1cc(Cc2cnc(N)nc2N)cc(OC)c1OC", "note": "[TMP, 2,4-diamino-5-(3,4,5-trimethoxybenzyl)pyrimidine, reference compound]", "MIC": 0.1}, {"smiles": "COc1cc(Cc2cnc(N)nc2N)c2cccnc2c1SC", "note": "[Compound 31, 2,4-Diamino-5-(7-methoxy-8-methylthio-5-quinolylmethyl)pyrimidine]", "MIC": 0.05}, {"smiles": "COc1cc(Cc2cnc(N)nc2N)c2cccnc2c1N.Cl.Cl", "note": "[Compound 8, 2,4-Diamino-5-(8-amino-7-methoxy-5-quinolylmethyl)-pyrimidine dihydrochloride]", "MIC": 0.1}, {"smiles": "Cc1cc(Cc2cnc(N)nc2N)c2cccnc2c1N(C)C.Cl.Cl", "note": "[Compound 9, 2,4-Diamino-5-(8-dimethylamino-7-methyl-5-quinolylmethyl)pyrimidine dihydrochloride]", "MIC": 0.05}]}]}
